Data from PubChem BioAssay (NCI).
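Exposure lasted 48 hours, with cells grown in 96-well plates and compounds tested at five concentrations. TGI: total growth inhibition.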

Columns and labels:
Experiment in all cases: NCI tumour cell line growth inhibition, 48 h
HT29 colon = test system: HT29 colon
786-0 renal = test system: 786-0 renal
U251 CNS = test system: U251 CNS
A549 NSCLC = test system: A549 NSCLC
SF-268 CNS = test system: SF-268 CNS
OVCAR-4 ovarian = test system: OVCAR-4 ovarian
SNB-78 CNS = test system: SNB-78 CNS
HCT-15 colon = test system: HCT-15 colon
NCI-H460 lung = test system: NCI-H460 lung
RXF-631 renal = test system: RXF-631 renal
OVCAR-3 ovarian = test system: OVCAR-3 ovarian
RXF 393 renal = test system: RXF 393 renal
HOP-18 NSCLC = test system: HOP-18 NSCLC
XF 498 CNS = test system: XF 498 CNS
RPMI-8226 leukemia = test system: RPMI-8226 leukemia
SN12C renal = test system: SN12C renal
DLD-1 colon = test system: DLD-1 colon
SK-MEL-5 melanoma = test system: SK-MEL-5 melanoma
KM12 colon = test system: KM12 colon
CCRF-CEM leukemia = test system: CCRF-CEM leukemia
TK-10 renal = test system: TK-10 renal
SK-OV-3 ovarian = test system: SK-OV-3 ovarian
SR leukemia = test system: SR leukemia
SW-620 colon = test system: SW-620 colon
UACC-257 melanoma = test system: UACC-257 melanoma
HCC-2998 colon = test system: HCC-2998 colon
LXFL 529 NSCLC = test system: LXFL 529 NSCLC
SK-MEL-28 melanoma = test system: SK-MEL-28 melanoma
DMS 273 small cell lung = test system: DMS 273 small cell lung
HOP-92 NSCLC = test system: HOP-92 NSCLC
UACC-62 melanoma = test system: UACC-62 melanoma
SF-539 CNS = test system: SF-539 CNS
UO-31 renal = test system: UO-31 renal
MALME-3M melanoma = test system: MALME-3M melanoma
LOX IMVI melanoma = test system: LOX IMVI melanoma
SK-MEL-2 melanoma = test system: SK-MEL-2 melanoma
HL-60(TB) leukemia = test system: HL-60(TB) leukemia
K-562 leukemia = test system: K-562 leukemia
SNB-19 CNS = test system: SNB-19 CNS
OVCAR-5 ovarian = test system: OVCAR-5 ovarian
KM20L2 colon = test system: KM20L2 colon
ACHN renal = test system: ACHN renal
DMS 114 small cell lung = test system: DMS 114 small cell lung
M14 melanoma = test system: M14 melanoma
COLO 205 colon = test system: COLO 205 colon
SF-295 CNS = test system: SF-295 CNS
IGROV1 ovarian = test system: IGROV1 ovarian
NCI-H23 lung = test system: NCI-H23 lung
EKVX NSCLC = test system: EKVX NSCLC
CAKI-1 renal = test system: CAKI-1 renal
HOP-62 NSCLC = test system: HOP-62 NSCLC
MOLT-4 leukemia = test system: MOLT-4 leukemia
OVCAR-8 ovarian = test system: OVCAR-8 ovarian
NCI-H226 lung = test system: NCI-H226 lung
M19-MEL melanoma = test system: M19-MEL melanoma
SNB-75 CNS = test system: SNB-75 CNS
HCT-116 colon = test system: HCT-116 colon
SN12K1 renal = test system: SN12K1 renal
P388/ADR leukemia = test system: P388/ADR leukemia
A498 renal = test system: A498 renal
NCI/ADR-RES ovarian = test system: NCI/ADR-RES ovarian
NCI-H522 lung = test system: NCI-H522 lung
MCF7 breast = test system: MCF7 breast
P388 leukemia = test system: P388 leukemia

CCN(CC)c1ccc(N=C2C=CC(=O)c3ncccc32)c(C)c1
TGI (HT29 colon): 29.2 µM | TGI (786-0 renal): 16.6 µM | TGI (U251 CNS): 19.6 µM | TGI (A549 NSCLC): 26.1 µM | TGI (SF-268 CNS): 21.3 µM | TGI (OVCAR-4 ovarian): 4.93 µM | TGI (SNB-78 CNS): 31.2 µM | TGI (HCT-15 colon): 10.8 µM | TGI (NCI-H460 lung): 21.8 µM | TGI (RXF-631 renal): 28.6 µM | TGI (OVCAR-3 ovarian): 11.4 µM | TGI (RXF 393 renal): 12.6 µM | TGI (HOP-18 NSCLC): 22.8 µM | TGI (XF 498 CNS): 5.19 µM | TGI (RPMI-8226 leukemia): > 100 µM | TGI (SN12C renal): 20.1 µM | TGI (DLD-1 colon): 12 µM | TGI (SK-MEL-5 melanoma): 18.4 µM | TGI (KM12 colon): 27.1 µM | TGI (CCRF-CEM leukemia): 14.6 µM | TGI (TK-10 renal): 29.8 µM | TGI (SK-OV-3 ovarian): 34.3 µM | TGI (SR leukemia): 6.51 µM | TGI (SW-620 colon): 7.12 µM | TGI (UACC-257 melanoma): 15 µM | TGI (HCC-2998 colon): 24.2 µM | TGI (LXFL 529 NSCLC): 8.67 µM | TGI (SK-MEL-28 melanoma): 24.5 µM | TGI (DMS 273 small cell lung): 20.6 µM | TGI (HOP-92 NSCLC): 19.7 µM | TGI (UACC-62 melanoma): 16.8 µM | TGI (SF-539 CNS): 19.4 µM | TGI (UO-31 renal): 30.4 µM | TGI (MALME-3M melanoma): 12.5 µM | TGI (LOX IMVI melanoma): 4.39 µM | TGI (SK-MEL-2 melanoma): 29 µM | TGI (HL-60(TB) leukemia): 5.15 µM | TGI (K-562 leukemia): 5.95 µM | TGI (SNB-19 CNS): 29.8 µM | TGI (OVCAR-5 ovarian): 24.4 µM | TGI (KM20L2 colon): 26.5 µM | TGI (ACHN renal): 12.7 µM | TGI (DMS 114 small cell lung): 12.9 µM | TGI (M14 melanoma): 13.4 µM | TGI (COLO 205 colon): 5.04 µM | TGI (SF-295 CNS): 22.9 µM | TGI (IGROV1 ovarian): 21 µM | TGI (NCI-H23 lung): 18.6 µM | TGI (EKVX NSCLC): 30.4 µM | TGI (CAKI-1 renal): 23.4 µM | TGI (HOP-62 NSCLC): 37.2 µM | TGI (MOLT-4 leukemia): 6.14 µM | TGI (OVCAR-8 ovarian): 10.5 µM | TGI (NCI-H226 lung): 38.8 µM | TGI (M19-MEL melanoma): 22.6 µM | TGI (SNB-75 CNS): 28.9 µM | TGI (HCT-116 colon): 6 µM

CC(=O)OCc1cc(=O)n(C)c2c3c4c(cc12)c(C)cc(=O)n4CO3
TGI (HT29 colon): 8.81 µM | TGI (U251 CNS): 26.6 µM | TGI (A549 NSCLC): 21.1 µM | TGI (SF-268 CNS): 7.21 µM | TGI (OVCAR-4 ovarian): 6.56 µM | TGI (SN12K1 renal): 5.57 µM | TGI (SNB-78 CNS): 14.2 µM | TGI (P388/ADR leukemia): 3.34 µM | TGI (HCT-15 colon): 37.8 µM | TGI (NCI-H460 lung): 5.74 µM | TGI (OVCAR-3 ovarian): 7.74 µM | TGI (RXF 393 renal): 3.33 µM | TGI (HOP-18 NSCLC): 51.5 µM | TGI (XF 498 CNS): 3.82 µM | TGI (RPMI-8226 leukemia): 11.1 µM | TGI (SN12C renal): 30.8 µM | TGI (DLD-1 colon): 26.3 µM | TGI (A498 renal): 5.3 µM | TGI (SK-MEL-5 melanoma): 4.18 µM | TGI (KM12 colon): 41.7 µM | TGI (CCRF-CEM leukemia): 12.7 µM | TGI (SK-OV-3 ovarian): 51 µM | TGI (SW-620 colon): 15.6 µM | TGI (NCI/ADR-RES ovarian): 10.9 µM | TGI (UACC-257 melanoma): 5.42 µM | TGI (HCC-2998 colon): 4.61 µM | TGI (SK-MEL-28 melanoma): 3.42 µM | TGI (DMS 273 small cell lung): 3.86 µM | TGI (HOP-92 NSCLC): 10 µM | TGI (UACC-62 melanoma): 3.58 µM | TGI (SF-539 CNS): 3.95 µM | TGI (UO-31 renal): 26.5 µM | TGI (MALME-3M melanoma): 2.72 µM | TGI (LOX IMVI melanoma): 8.6 µM | TGI (SK-MEL-2 melanoma): 3.65 µM | TGI (HL-60(TB) leukemia): 16.2 µM | TGI (K-562 leukemia): 27.7 µM | TGI (SNB-19 CNS): 72.8 µM | TGI (NCI-H522 lung): 2.16 µM | TGI (OVCAR-5 ovarian): 20.5 µM | TGI (KM20L2 colon): 15.8 µM | TGI (DMS 114 small cell lung): 6.11 µM | TGI (COLO 205 colon): 4.23 µM | TGI (SF-295 CNS): 6.49 µM | TGI (IGROV1 ovarian): 11.5 µM | TGI (NCI-H23 lung): 5.01 µM | TGI (EKVX NSCLC): 11.2 µM | TGI (CAKI-1 renal): 33.9 µM | TGI (HOP-62 NSCLC): 4.3 µM | TGI (MCF7 breast): 17 µM | TGI (MOLT-4 leukemia): 4.25 µM | TGI (OVCAR-8 ovarian): 12.7 µM | TGI (NCI-H226 lung): 5.5 µM | TGI (M19-MEL melanoma): 4.21 µM | TGI (SNB-75 CNS): 4.69 µM | TGI (HCT-116 colon): 20 µM | TGI (P388 leukemia): 4.99 µM
